In the supplement of paper PMC5762512:

Experiments:
Experiment in all cases: IC50 cell viability (Alamar Blue, 96 h)
10326 = tested on: 10326
Procedure: (§1)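 Cells in log-phase growth were seeded in 96-well plates and treated with drug for 96 h at 37°C using 8-point serial dilutions from 0.0025 to 10 µM. Viability was read by Alamar Blue fluorescence after 6 h and normalised to positive and vehicle (DMSO) controls. IC50 values were fitted in ActivityBase; the value given is the mean of two independent experiments.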

11060 = tested on: 11060
Procedure: as §1

14169 = tested on: 14169
Procedure: as §1

8645 = tested on: 8645
Procedure: as §1

A549 = tested on: A549
Procedure: as §1

CAKI-1 = tested on: CAKI-1
Procedure: as §1

HCC2429 = tested on: HCC2429
Procedure: as §1

HS-27 = tested on: HS-27
Procedure: as §1

P896-CL = tested on: P896-CL
Procedure: as §1

PER-403 = tested on: PER-403
Procedure: as §1

PER-535 = tested on: PER-535
Procedure: as §1

PER-536 = tested on: PER-536
Procedure: as §1

PER-624 = tested on: PER-624
Procedure: as §1

PER-704 = tested on: PER-704
Procedure: as §1

PER-712 = tested on: PER-712
Procedure: as §1

PER-891 = tested on: PER-891
Procedure: as §1

RPMI2650 = tested on: RPMI2650
Procedure: as §1

TC797 = tested on: TC797
Procedure: as §1

TY82 = tested on: TY82
Procedure: as §1

WI-38 = tested on: WI-38
Procedure: as §1

Compound	IC50 cell viability 10326 [nM]	IC50 cell viability 11060 [nM]	IC50 cell viability 14169 [nM]	IC50 cell viability 8645 [nM]	IC50 cell viability (A549) [nM]	IC50 cell viability (CAKI-1) [nM]	IC50 cell viability (HCC2429) [nM]	IC50 cell viability (HS-27) [nM]	IC50 cell viability (P896-CL) [nM]	IC50 cell viability (PER-403) [nM]	IC50 cell viability (PER-535) [nM]	IC50 cell viability (PER-536) [nM]	IC50 cell viability (PER-624) [nM]	IC50 cell viability (PER-704) [nM]	IC50 cell viability (PER-712) [nM]	IC50 cell viability (PER-891) [nM]	IC50 cell viability (RPMI2650) [nM]	IC50 cell viability (TC797) [nM]	IC50 cell viability (TY82) [nM]	IC50 cell viability (WI-38) [nM]
Nc1ccn([C@@H]2O[C@H](CO)[C@@H](O)C2(F)F)c(=O)n1 [Gemcitabine]	14.7	9.77	6.73	12.4	9.64	135	7.62	137	29.6	4.92	5.26	5.38	6.22	36.2	49.2	568	3330	16.6	77.5	341
COc1cc2c(cc1-c1c(C)noc1C)ncc1[nH]c(=O)n([C@H](C)c3ccccn3)c12 [I-BET 151]	43.5	937	178	529	738	7150	159	4370	3150	129	1140	4210	3240	950	1940	9290	6810	> 10000	584	1760
CN(Cc1cnc2nc(N)nc(N)c2n1)c1ccc(C(=O)N[C@@H](CCC(=O)O)C(=O)O)cc1 [Methotrexate]	> 10000	869	65.1	99	53.9	> 10000	93.3	> 10000	> 10000	30.9	> 10000	> 10000	25.7	106	132	> 10000	> 10000	267	136	> 10000
O=C1c2c(O)ccc(O)c2C(=O)c2c(NCCNCCO)ccc(NCCNCCO)c21 [Mitoxantrone]	< 2.5	7.36	< 2.5	< 2.5	< 2.5	1120	10	41.7	10.9	5.31	10.7	144	12.8	142	570	266	1280	141	314	108
CC[C@@]1([C@@H]2O[C@@H]([C@H]3O[C@@](O)(CO)[C@H](C)C[C@@H]3C)C[C@@H]2C)CC[C@H]([C@]2(C)CC[C@]3(C[C@H](O)[C@@H](C)[C@@H]([C@@H](C)[C@@H](OC)[C@H](C)C(=O)O)O3)O2)O1 [Monensin]	817	3040	3510	4650	234	> 10000	4880	235	6830	5580	> 10000	> 10000	1420	9240	7480	5760	> 10000	4080	5070	55
Cc1sc2c(c1C)C(c1ccc(Cl)cc1)=N[C@@H](CC(=O)Nc1ccc(O)cc1)c1nnc(C)n1-2 [OTX-015]	6.97	194	35.1	73.6	784	9360	55.8	2450	921	42.6	622	4260	4270	440	939	6720	> 10000	> 10000	137	543
COc1ccccc1S(=O)(=O)Nc1ccc2c(c1)CN(C)C(=O)N2 [PFI-1]	175	804	444	751	287	7020	551	2940	2810	623	2190	5980	2820	2160	1350	5220	> 10000	> 10000	1580	3340
Cc1cc(/C=C/c2ccc3cc(N(C)C)ccc3[n+]2C)c(C)n1-c1ccccc1 [Pyrvinium pamoate]	230	167	249	268	95	906	173	263	304	199	260	261	188	198	277	396	421	165	206	256
CC[C@@]1(O)C(=O)OCc2c1cc1n(c2=O)Cc2cc3c(CN(C)C)c(O)ccc3nc2-1 [Topotecan]	13.3	14.6	17.7	17.4	118	622	17.5	4570	272	5.01	107	81.6	11.7	312	243	728	391	24.3	116	2480
CC[C@]1(O)C[C@H]2CN(CCc3c([nH]c4ccccc34)[C@@](C(=O)OC)(c3cc4c(cc3OC)N(C=O)[C@H]3[C@@](O)(C(=O)OC)[C@H](OC(C)=O)[C@]5(CC)C=CCN6CC[C@]43[C@@H]65)C2)C1 [Vincristine]	< 2.5	< 2.5	< 2.5	< 2.5	6.14	5020	< 2.5	7.19	8.77	< 2.5	6.92	20.7	7.58	6.18	8.68	27.5	> 10000	5.35	8.25	8.35
O=C(CCCCCCC(=O)Nc1ccccc1)NO [Vorinostat]	514	2740	1220	561	2070	4100	1170	4290	3190	732	2440	> 10000	1540	2140	3450	> 10000	5840	7210	2240	4450
